Consider 32 compounds from US8901118B2, “Compounds and methods for kinase modulation, and indications therefor” (Plexxikon Inc., priority 2010, dated 2014).

This assay concerns the target T1, BCR-FMS BaF3 cells (Homo sapiens, UniProt P07333).
T1 construct: fused on or other part: P11274 (Breakpoint cluster region protein)
T1 sequence (P07333 582-910): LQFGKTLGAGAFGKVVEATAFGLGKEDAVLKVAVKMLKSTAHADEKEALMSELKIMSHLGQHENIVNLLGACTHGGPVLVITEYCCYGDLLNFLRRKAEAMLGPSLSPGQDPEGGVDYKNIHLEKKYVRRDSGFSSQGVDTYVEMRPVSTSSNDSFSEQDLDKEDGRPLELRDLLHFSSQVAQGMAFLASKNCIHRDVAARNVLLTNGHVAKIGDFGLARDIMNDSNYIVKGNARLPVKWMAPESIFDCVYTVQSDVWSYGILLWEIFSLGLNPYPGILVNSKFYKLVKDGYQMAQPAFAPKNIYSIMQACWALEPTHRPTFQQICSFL
As to the kind of experiment: BaF3 BCR-FMS cell proliferation assay (ATPlite). It is filed as cell-based. The settings on record: read-out: Inhibition of Cell Proliferation IC50, BCR/BaF3 Fms. The essentials:
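ATP-based luminescence (ATPlite), read after 10 min at room temperature, served as a proxy for cell number, and IC50 was fitted against compound concentration. Before that, cells were treated for 3 days with an 8-point 1:3 dilution series starting at 10 μM. BaF3 cells were plated at 10,000/well without IL-3, and MV-4-11 cells at 25,000/well.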
Background: ATP-based viability assays read luminescence as a measure of living cells.
For the compound `Clc1cnc2[nH]cc(Cc3cnc(NC4CCCC4)nc3)c2c1` [Compound P-3003, [5-(5-Chloro-1H-pyrrolo[2,3-b]pyridin-3-ylmethyl)-pyrimidin-2-yl]-cyclopentyl-amine], the IC50 is under 1000 nM.
The figure for `Clc1cnc2[nH]cc(Cc3cnc(NC4CC4)nc3)c2c1` [Compound P-3005, [5-(5-Chloro-1H-pyrrolo[2,3-b]pyridin-3-ylmethyl)-pyrimidin-2-yl]-cyclopropyl-amine] is under 1000 nM; for `COc1ccccc1Nc1ncc(Cc2c[nH]c3ncc(Cl)cc23)cn1` [Compound P-3016, [5-(5-Chloro-1H-pyrrolo[2,3-b]pyridin-3-ylmethyl)-pyrimidin-2-yl]-(2-methoxy-phenyl)-amine] it is under 1000 nM; for `Fc1cccc(Nc2ncc(Cc3c[nH]c4ncc(Cl)cc34)cn2)c1` [Compound P-3017, [5-(5-Chloro-1H-pyrrolo[2,3-b]pyridin-3-ylmethyl)-pyrimidin-2-yl]-(3-fluoro-phenyl)-amine] it is under 1000 nM.
Turning to `COc1ccc(Nc2ncc(Cc3c[nH]c4ncc(C)cc34)cn2)cn1` [Compound P-3020, (6-Methoxy-pyridin-3-yl)-[5-(5-methyl-1H-pyrrolo[2,3-b]pyridin-3-ylmethyl)-pyrimidin-2-yl]-amine], the IC50 is under 10 nM.
Take `COc1ccc(Nc2ncc(Cc3c[nH]c4ncc(C)cc34)cn2)cc1` [Compound P-3021, (4-Methoxy-phenyl)-[5-(5-methyl-1H-pyrrolo[2,3-b]pyridin-3-ylmethyl)-pyrimidin-2-yl]-amine]: the IC50 is under 10 nM.
Regarding `COc1cc(Nc2ncc(Cc3c[nH]c4ncc(C)cc34)cn2)ccc1F` [Compound P-3022, (4-Fluoro-3-methoxy-phenyl)-[5-(5-methyl-1H-pyrrolo[2,3-b]pyridin-3-ylmethyl)-pyrimidin-2-yl]-amine], the IC50 was under 100 nM.
Consider `COc1ccc(Nc2ncc(Cc3c[nH]c4ncc(C)cc34)cn2)cc1F` [Compound P-3023, (3-Fluoro-4-methoxy-phenyl)-[5-(5-methyl-1H-pyrrolo[2,3-b]pyridin-3-ylmethyl)-pyrimidin-2-yl]-amine], for which the IC50 was under 100 nM.
With `CCCOc1ccc(Nc2ncc(Cc3c[nH]c4ncc(C)cc34)cn2)cc1` [Compound P-3024, [5-(5-Methyl-1H-pyrrolo[2,3-b]pyridin-3-ylmethyl)-pyrimidin-2-yl]-(4-propoxy-phenyl)-amine], the IC50 was under 10 nM.
In the case of `CCc1ccc(Nc2ncc(Cc3c[nH]c4ncc(C)cc34)cn2)cc1` [Compound P-3025, (4-Ethyl-phenyl)-[5-(5-methyl-1H-pyrrolo[2,3-b]pyridin-3-ylmethyl)-pyrimidin-2-yl]-amine] it was under 10 nM; in that of `CCOc1ccc(Nc2ncc(Cc3c[nH]c4ncc(C)cc34)cn2)cc1` [Compound P-3026, (4-Ethoxy-phenyl)-[5-(5-methyl-1H-pyrrolo[2,3-b]pyridin-3-ylmethyl)-pyrimidin-2-yl]-amine], under 10 nM; in that of `CCOc1ccc(Nc2ncc(Cc3c[nH]c4ncc(C)cc34)cn2)cn1` [Compound P-3027, (6-Ethoxy-pyridin-3-yl)-[5-(5-methyl-1H-pyrrolo[2,3-b]pyridin-3-ylmethyl)-pyrimidin-2-yl]-amine], under 10 nM.
On to `Cc1cnc2[nH]cc(Cc3cnc(Nc4cc(-c5ccc(F)cc5)n[nH]4)nc3)c2c1` [Compound P-3028, [5-(4-Fluoro-phenyl)-2H-pyrazol-3-yl]-[5-(5-methyl-1H-pyrrolo[2,3-b]pyridin-3-ylmethyl)-pyrimidin-2-yl]-amine], for which the IC50 is under 1000 nM.
For the compound `Cc1cnc2[nH]cc(Cc3cnc(Nc4cc(C(C)(C)C)n[nH]4)nc3)c2c1` [Compound P-3029, (5-tert-Butyl-2H-pyrazol-3-yl)-[5-(5-methyl-1H-pyrrolo[2,3-b]pyridin-3-ylmethyl)-pyrimidin-2-yl]-amine], the IC50 was under 100 nM.
As to `Cc1cnc2[nH]cc(Cc3cnc(Nc4ccc(C(C)(C)C)cc4)nc3)c2c1` [Compound P-3030, (4-tert-Butyl-phenyl)-[5-(5-methyl-1H-pyrrolo[2,3-b]pyridin-3-ylmethyl)-pyrimidin-2-yl]-amine amine], the IC50 was under 10 nM.
Turning to `Cc1cnc2[nH]cc(Cc3cnc(Nc4ccc(C(O)(C(F)(F)F)C(F)(F)F)cc4)nc3)c2c1` [Compound P-3031, 1,1,1,3,3,3-Hexafluoro-2-{4-[5-(5-methyl-1H-pyrrolo[2,3-b]pyridin-3-ylmethyl)-pyrimidin-2-ylamino]-phenyl}-propan-2-ol], the IC50 was under 10 nM.
`Cc1cnc2[nH]cc(Cc3cnc(Nc4cc(C5CC5)n[nH]4)nc3)c2c1` [Compound P-3032, (5-Cyclopropyl-2H-pyrazol-3-yl)-[5-(5-methyl-1H-pyrrolo[2,3-b]pyridin-3-ylmethyl)-pyrimidin-2-yl]-amine]: the IC50 was under 1000 nM.
Consider `CSc1ccc(Nc2ncc(Cc3c[nH]c4ncc(C)cc34)cn2)cc1` [Compound P-3033, [5-(5-Methyl-1H-pyrrolo[2,3-b]pyridin-3-ylmethyl)-pyrimidin-2-yl]-(4-methylsulfanyl-phenyl)-amine], for which the IC50 is under 10 nM.
In the case of `Cc1cnc2[nH]cc(Cc3cnc(Nc4ccc(S(C)(=O)=O)cc4)nc3)c2c1` [Compound P-3034, (4-Methanesulfonyl-phenyl)-[5-(5-methyl-1H-pyrrolo[2,3-b]pyridin-3-ylmethyl)-pyrimidin-2-yl]-amine] it was under 10 nM.
Take `CCn1ccc(Nc2ncc(Cc3c[nH]c4ncc(C)cc34)cn2)n1` [Compound P-3035, (1-Ethyl-1H-pyrazol-3-yl)-[5-(5-methyl-1H-pyrrolo[2,3-b]pyridin-3-ylmethyl)-pyrimidin-2-yl]-amine]: the IC50 is under 100 nM.
For `CCn1cc(Nc2ncc(Cc3c[nH]c4ncc(C)cc34)cn2)cn1` [Compound P-3036, (1-Ethyl-1H-pyrazol-4-yl)-[5-(5-methyl-1H-pyrrolo[2,3-b]pyridin-3-ylmethyl)-pyrimidin-2-yl]-amine], the IC50 was under 10 nM.
Regarding `Cc1cnc2[nH]cc(Cc3cnc(Nc4cc(C(F)(F)F)n[nH]4)nc3)c2c1` [Compound P-3037, [5-(5-Methyl-1H-pyrrolo[2,3-b]pyridin-3-ylmethyl)-pyrimidin-2-yl]-(5-trifluoromethyl-2H-pyrazol-3-yl)-amine], the IC50 was over 1000 nM.
In the case of `Cc1cnc2[nH]cc(Cc3cnc(Nc4cc(OC(C)C)n[nH]4)nc3)c2c1` [Compound P-3038, (5-Isopropoxy-2H-pyrazol-3-yl)-[5-(5-methyl-1H-pyrrolo[2,3-b]pyridin-3-ylmethyl)-pyrimidin-2-yl]-amine] it was under 1000 nM; in that of `Cc1ccc(Nc2ccc(Cc3c[nH]c4ncc(Cl)cc34)c(F)n2)cn1` [Compound P-3042, [5-(5-Chloro-1H-pyrrolo[2,3-b]pyridin-3-ylmethyl)-6-fluoro-pyridin-2-yl]-(6-methyl-pyridin-3-yl)-amine], under 100 nM; in that of `CCOc1ccc(Nc2ccc(C(=O)c3c[nH]c4ncc(C)cc34)c(F)n2)cn1` [Compound P-3045, [6-(6-ethoxy-pyridin-3-ylamino)-2-fluoro-pyridin-3-yl]-(5-methyl-1H-pyrrolo[2,3-b]pyridin-3-yl)-methanone], under 100 nM.
For `CCOc1ncnc2[nH]cc(Cc3ccc(Nc4ccc(Br)nc4)nc3F)c12` [Compound P-4020, (6-Bromo-pyridin-3-yl)-[5-(4-ethoxy-7H-pyrrolo[2,3-d]pyrimidin-5-ylmethyl)-6-fluoro-pyridin-2-yl]-amine], the IC50 is under 100 nM.
With `CCOc1ncnc2[nH]cc(Cc3ccc(Nc4cccnc4)nc3F)c12` [Compound P-4021, [5-(4-Ethoxy-7H-pyrrolo[2,3-d]pyrimidin-5-ylmethyl)-6-fluoro-pyridin-2-yl]-pyridin-3-yl-amine], the IC50 was under 1000 nM.
On to `CCOc1ccc(Nc2ccc(Cc3c[nH]c4ncnc(C5CC5)c34)c(F)n2)cn1` [Compound P-4026, [5-(4-Cyclopropyl-7H-pyrrolo[2,3-d]pyrimidin-5-ylmethyl)-6-fluoro-pyridin-2-yl]-(6-ethoxy-pyridin-3-yl)-amine], for which the IC50 was under 10 nM.
For the compound `CCOc1ccc(Nc2ccc(C(=O)c3c[nH]c4ncnc(C5CC5)c34)c(F)n2)cn1` [Compound P-4027, (4-Cyclopropyl-7H-pyrrolo[2,3-d]pyrimidin-5-yl)-[6-(6-ethoxy-pyridin-3-ylamino)-2-fluoro-pyridin-3-yl]-methanone], the IC50 is under 100 nM.
For `CCOc1ccc(Nc2ccc(C(=O)c3c[nH]c4ncnc(C)c34)c(F)n2)cn1` [Compound P-4032, [6-(6-Ethoxy-pyridin-3-ylamino)-2-fluoro-pyridin-3-yl]-(4-methyl-7H-pyrrolo[2,3-d]pyrimidin-5-yl)-methanone], the IC50 is under 100 nM.
With `Cc1cncc(Nc2ccc(Cc3c[nH]c4ncnc(C5CC5)c34)c(F)n2)c1` [Compound P-4038, [5-(4-Cyclopropyl-7H-pyrrolo[2,3-d]pyrimidin-5-ylmethyl)-6-fluoro-pyridin-2-yl]-(5-methyl-pyridin-3-yl)-amine], the IC50 is under 100 nM.
Take `Cc1cncc(Nc2ccc(C(=O)c3c[nH]c4ncnc(C5CC5)c34)c(F)n2)c1` [Compound P-4039, (4-Cyclopropyl-7H-pyrrolo[2,3-d]pyrimidin-5-yl)-[2-fluoro-6-(5-methyl-pyridin-3-ylamino)-pyridin-3-yl]-methanone]: the IC50 is under 100 nM.
